The record followed here is patent publication US20030225081A1, “Pyridazinones and triazinones and medicinal use thereof” (priority 2000, published 2003).

pIC50: −log10 of the molar value.

The subject of the test is AMPA receptor. The experiment in a line: Suppressing action to calcium influx into nerve cells induced by AMPA. The class given is cell-based. The note with it: Fura2-AM, stimulation with 2 μM AMPA, primary culture of rat embryo cerebral cortex nerve cells, 1 μM MK-801. The text has this: Suppressing Action to Calcium Influx into Nerve Cells Induced by AMPA
The suppressing action of the compounds of the present invention to calcium influx into nerve cells induced by AMPA was investigated using the primary culture system of nerve cells of cerebral cortex of embryo of rat.
Cerebral cortex was cut out from the brain of rat of gestational 18 days and treated with trypsin and DNase to disperse the cells. The cells were flown by MEM containing 10% of serum, sown in a culture bottle and astrocytes were proliferated. The astrocytes were re-dispersed by trypsin and sown in a 96-well plate. After incubation for one week, it was confirmed that the astrocytes covered all over the bottom and then the nerve cells of cerebral cortex which was dispersed by the above method were sown thereupon. After incubation for 24 hours, the medium was changed, the incubation was carried out for one week and, after that, the medium was changed to that containing 1 μM of MK-801. Nerve cells which were incubated for not shorter than 8 to 10 days were used.
Calcium influx into the cells was measured using Fura2-AM which was a calcium-sensitive fluorescent dye. It was treated in a medium containing Fura2-AM for 1 hour, incorporated into the cells, exchanged to a Tyrode solution containing 1 μM MK-801 and stimulation was carried out using 2 μM AMPA. Change in the amount of calcium flown into the cells were measured as the change in the fluorescent intensity at the exciting wave length of 340/380 nm. […] As the control compound, GYKI52466 (Le Peillet, et al., Brain Res., 571, 115, 1992) was used.
For orientation: pIC50 means −log10 of the IC50, conventionally taken in molar units. Consider `O=C1N(c2ccsc2)CC(c2ccccn2)=NN1c1ccccc1` [Example 105, 2-Phenyl-6-(2-pyridyl)-4-(thiophen-3-yl)-4,5-dihydro-1,2,4-triazin-3 (2H)-one], for which the pIC50 was 6.70. With `O=c1c(-c2ccccn2)cc(-c2ccccc2O)nn1-c1ccccc1Br` [Example 31, 2-(2-Bromophenyl)-6-(2-hydroxyphenyl)-4-(2-pyridyl)-3 (2H)-pyridazinone] the figure was 6.05; with `N#Cc1ccccc1-n1nc(-c2ccccn2)cc(-c2ccccc2)c1=O` [Example 43, 2-(2-Cyanophenyl)-4-phenyl-6-(2-pyridyl)-3 (2H)-pyridazinone], 7.00; with `N#Cc1ccccc1N1N=C(c2ccccn2)CC(c2ccccc2O)C1=O` (stereo not shown) [Example 41, 2-(2-Cyanophenyl)-4-(2-hydroxyphenyl)-6-(2-pyridyl)-4,5-dihydro-3 (2H)-pyridazinone], 7.52.

For the compound `O=C1C(c2ccc(O)cc2)CC(c2ccccn2)=NN1c1ccccc1Br` (stereo not shown) [Example 30, 2-(2-Bromophenyl)-4-(4-hydroxyphenyl)-6-(2-pyridyl)-4,5-dihydro-3 (2H)-pyridazinone], the pIC50 is 6.70. With `N#Cc1ccccc1N1N=C(c2ccccn2)CN(c2ccsc2)C1=O` [Example 101, 2-(2-Cyanophenyl)-6-(2-pyridyl)-4-(thiophene-3-yl)-4,5-dihydro-1,2,4-triazin-3 (2H)-one] the figure was 7.00.

On to `COc1ccccc1C1=NN(c2ccccc2C#N)C(=O)N(c2ccccn2)C1` [Example 99, 2-(2-Cyanophenyl)-6-(2-methoxyphenyl)-4-(2-pyridyl)-4,5-dihydro-1,2,4-triazin-3 (2H)-one], for which the pIC50 is 7.15. Regarding `COc1ccccc1-c1cc(-c2ccccn2)c(=O)n(-c2ccccc2Br)n1` [Example 5, 2-(2-Bromophenyl)-6-(2-methoxyphenyl)-4-(2-pyridyl)-3 (2H)-pyridazinone], the pIC50 was 5.17. In the case of `O=C1C(c2ccccc2Br)CC(c2ccccn2)=NN1c1ccccc1` (stereo not shown) [Example 25, 4-(2-Bromophenyl)-2-phenyl-6-(2-pyridyl)-4,5-dihydro-3 (2H)-pyridazinone] it was 6.70. Regarding `N#Cc1ccccc1-n1nc(-c2ccccc2)cc(C(=O)NCCN2CCOCC2)c1=O` [Example 12, 2-(2-Cyanophenyl)-4-(4-morpholinoethylaminocarbonyl)-6-phenyl-3 (2H)-pyridazinone], the pIC50 is 5.41. In the case of `Cc1cccc(-n2nc(-c3ccccn3)cc(-c3cccnc3)c2=O)c1` [Example 64, 2-(3-Tolyl)-4-(3-pyridyl)-6-(2-pyridyl)-3 (2H)-pyridazinone] it was 6.15; in that of `O=C1C(c2ccccc2OS(=O)(=O)C(F)(F)F)CC(c2ccccn2)=NN1c1ccccc1` (stereo not shown) [Example 38, 2-Phenyl-6-(2-pyridyl)-4-(2-trifluoromethylsulfonyloxyphenyl)-4,5-dihydro-3 (2H)-pyridazinone], 6.40. For `COc1ccc(Br)cc1C1CC(c2ccccn2)=NN(c2ccccc2Br)C1=O` (stereo not shown) [Example 16, 2-(2-Bromophenyl)-4-(3-bromo-6-methoxyphenyl)-6-(2-pyridyl)-4,5-dihydro-3 (2H)-pyridazinone], the pIC50 was 6.15. With `COc1ccccc1C1CC(c2ccccn2)=NN(c2ccccc2Br)C1=O` (stereo not shown) [Example 14, 2-(2-Bromophenyl)-4-(2-methoxyphenyl)-6-(2-pyridyl)-4,5-dihydro-3 (2H)-pyridazinone] the figure was 6.70. As for `O=c1c(-c2cccnc2)cc(-c2ccccn2)nn1-c1ccccc1Br` [Example 61, 2-(2-Bromophenyl)-4-(3-pyridyl)-6-(2-pyridyl)-3 (2H)-pyridazinone], the pIC50 is 6.52. In the case of `O=C1N(c2cc(O)ccc2O)CC(c2ccccc2O)=NN1c1ccccc1` [Example 95, 4-(2,5-Dihydroxyphenyl)-6-(2-hydroxyphenyl)-2-phenyl-4,5-dihydro-1,2,4-triazin-3 (2H)-one] it was 7.30.
